The CheMixHub viscosity set
± gives the uncertainty stated by the source.

Assay: xn = mol fraction of the nth substance listed
Settings: 101.33 kPa

CCCCCCCCCCCC(=O)OCC + CCCCO
Settings	viscosity [mPa·s]
293.15 K, x1 = 0.1001	2.703 ± 0.031
293.15 K, x1 = 0.2001	2.643 ± 0.03
293.15 K, x1 = 0.3002	2.654 ± 0.031
293.15 K, x1 = 0.4	2.718 ± 0.031
293.15 K, x1 = 0.5001	2.8 ± 0.032
293.15 K, x1 = 0.6002	2.891 ± 0.033
293.15 K, x1 = 0.6997	3.008 ± 0.034
293.15 K, x1 = 0.8	3.111 ± 0.036
293.15 K, x1 = 0.9001	3.225 ± 0.037
293.15 K, x2 = 0.1019	3.227 ± 0.13
293.15 K, x2 = 0.2001	3.082 ± 0.13
293.15 K, x2 = 0.3	2.969 ± 0.12
293.15 K, x2 = 0.4001	2.866 ± 0.12
293.15 K, x2 = 0.5	2.781 ± 0.11
293.15 K, x2 = 0.6	2.699 ± 0.11
293.15 K, x2 = 0.7	2.641 ± 0.11
293.15 K, x2 = 0.8	2.624 ± 0.11
293.15 K, x2 = 0.8999	2.688 ± 0.11
298.15 K, x2 = 0.1019	2.872 ± 0.12
298.15 K, x2 = 0.2001	2.757 ± 0.11
298.15 K, x2 = 0.3	2.645 ± 0.11
298.15 K, x2 = 0.4001	2.566 ± 0.11
298.15 K, x2 = 0.5	2.477 ± 0.1
298.15 K, x2 = 0.6	2.409 ± 0.099
298.15 K, x2 = 0.7	2.363 ± 0.097
298.15 K, x2 = 0.8	2.342 ± 0.096
298.15 K, x2 = 0.8999	2.395 ± 0.098
303.15 K, x1 = 0.0997	2.129 ± 0.025
303.15 K, x1 = 0.2001	2.093 ± 0.025
303.15 K, x1 = 0.2998	2.118 ± 0.025
303.15 K, x1 = 0.3532	2.142 ± 0.025
303.15 K, x1 = 0.4999	2.233 ± 0.026
303.15 K, x1 = 0.5982	2.313 ± 0.027
303.15 K, x1 = 0.6997	2.386 ± 0.028
303.15 K, x1 = 0.7986	2.474 ± 0.029
303.15 K, x1 = 0.9006	2.582 ± 0.03
303.15 K, x2 = 0.1019	2.575 ± 0.11
303.15 K, x2 = 0.2001	2.468 ± 0.1
303.15 K, x2 = 0.3	2.391 ± 0.098
303.15 K, x2 = 0.4001	2.309 ± 0.095
303.15 K, x2 = 0.5	2.241 ± 0.092
303.15 K, x2 = 0.6	2.164 ± 0.089
303.15 K, x2 = 0.7	2.122 ± 0.087
303.15 K, x2 = 0.8	2.092 ± 0.086
303.15 K, x2 = 0.8999	2.131 ± 0.087
308.15 K, x2 = 0.1019	2.311 ± 0.095
308.15 K, x2 = 0.2001	2.225 ± 0.091
308.15 K, x2 = 0.3	2.147 ± 0.088
308.15 K, x2 = 0.4001	2.084 ± 0.085
308.15 K, x2 = 0.5	2.015 ± 0.083
308.15 K, x2 = 0.6	1.943 ± 0.08
308.15 K, x2 = 0.7	1.9 ± 0.078
308.15 K, x2 = 0.8	1.868 ± 0.077
308.15 K, x2 = 0.8999	1.896 ± 0.078
313.15 K, x1 = 0.1	1.744 ± 0.021
313.15 K, x1 = 0.1724	1.724 ± 0.021
313.15 K, x1 = 0.2999	1.72 ± 0.021
313.15 K, x1 = 0.4004	1.742 ± 0.021
313.15 K, x1 = 0.4998	1.781 ± 0.021
313.15 K, x1 = 0.5998	1.818 ± 0.022
313.15 K, x1 = 0.7011	1.862 ± 0.022
313.15 K, x1 = 0.7997	1.927 ± 0.023
313.15 K, x1 = 0.8926	1.979 ± 0.023
313.15 K, x2 = 0.1019	2.112 ± 0.087
313.15 K, x2 = 0.2001	2.018 ± 0.083
313.15 K, x2 = 0.3	1.946 ± 0.08
313.15 K, x2 = 0.4001	1.881 ± 0.077
313.15 K, x2 = 0.5	1.816 ± 0.074
313.15 K, x2 = 0.6	1.754 ± 0.072
313.15 K, x2 = 0.7	1.709 ± 0.07
313.15 K, x2 = 0.8	1.685 ± 0.069
313.15 K, x2 = 0.8999	1.695 ± 0.069
318.15 K, x2 = 0.1019	1.934 ± 0.079
318.15 K, x2 = 0.2001	1.855 ± 0.076
318.15 K, x2 = 0.3	1.787 ± 0.073
318.15 K, x2 = 0.4001	1.725 ± 0.071
318.15 K, x2 = 0.5	1.66 ± 0.068
318.15 K, x2 = 0.6	1.605 ± 0.066
318.15 K, x2 = 0.7	1.563 ± 0.064
318.15 K, x2 = 0.8	1.529 ± 0.063
318.15 K, x2 = 0.8999	1.534 ± 0.063
323.15 K, x2 = 0.1019	1.745 ± 0.072
323.15 K, x2 = 0.2001	1.674 ± 0.069
323.15 K, x2 = 0.3	1.615 ± 0.066
323.15 K, x2 = 0.4001	1.563 ± 0.064
323.15 K, x2 = 0.5	1.508 ± 0.062
323.15 K, x2 = 0.6	1.447 ± 0.059
323.15 K, x2 = 0.7	1.399 ± 0.057
323.15 K, x2 = 0.8	1.374 ± 0.056
323.15 K, x2 = 0.8999	1.364 ± 0.056
